Target: T1, MPO (purified from human polynuclear leukocytes) (Homo sapiens, UniProt P05164)
T1 construct: purified from human polynuclear leukocytes; purchased Calbiochem/EMD Biosciences; host or cells: human polynuclear leukocytes (natural source)
Assay: MPO Amplex Red Activity Assay
Type: biochemical
Outline: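 Human leukocyte MPO […] oxidises 30 μM Amplex Red with 2 μM H2O2 in 50 mM NaPi pH 7.4, 150 mM NaCl, 1 mM DTPA, 2% DMSO. Resorufin fluorescence (ex 530/em 580 nm) read every 20 s, minus catalase background. kobs from the first 600 s, corrected for auto-inactivation, fit versus [I] for kinact/KI.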

T1 sequence (P05164 279-745 limits assumed): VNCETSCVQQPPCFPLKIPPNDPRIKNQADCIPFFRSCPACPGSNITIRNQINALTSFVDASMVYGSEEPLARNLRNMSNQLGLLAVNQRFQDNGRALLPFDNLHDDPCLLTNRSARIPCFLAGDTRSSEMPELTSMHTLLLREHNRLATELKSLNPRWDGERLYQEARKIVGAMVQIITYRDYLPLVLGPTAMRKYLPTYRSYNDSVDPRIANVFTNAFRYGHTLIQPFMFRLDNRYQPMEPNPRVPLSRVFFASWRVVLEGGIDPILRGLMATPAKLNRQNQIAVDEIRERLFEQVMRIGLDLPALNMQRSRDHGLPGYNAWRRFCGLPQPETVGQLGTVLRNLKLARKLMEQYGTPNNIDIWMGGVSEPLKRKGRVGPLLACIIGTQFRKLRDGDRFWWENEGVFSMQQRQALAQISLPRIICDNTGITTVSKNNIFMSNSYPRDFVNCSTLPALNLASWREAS
T1 sequence (P05164 165-273 limits assumed): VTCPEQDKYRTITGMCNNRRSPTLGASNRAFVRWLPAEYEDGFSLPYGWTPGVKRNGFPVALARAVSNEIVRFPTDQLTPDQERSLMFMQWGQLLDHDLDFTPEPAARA

SMILES | MPO kinact/Ki (Table 1, 2 μM H2O2, pH 7.4) | MPO kinact/Ki (Table 1A, 2 μM H2O2, pH 7.4)
COCCn1c(-c2ccc3c(c2)OCCO3)cc(=O)[nH]c1=S [Example 326, 6-(2,3-dihydro-1,4-benzodioxin-6-yl)-1-(2-methoxyethyl)-2-thioxo-2,3-dihydropyrimidin-4(1H)-one] | 7480 1/s per M | 
COCCn1c(-c2ccc(OC(C)C)cc2)cc(=O)[nH]c1=S [Example 327, 6-(4-isopropoxyphenyl)-1-(2-methoxyethyl)-2-thioxo-2,3-dihydropyrimidin-4(1H)-one] | 1880 1/s per M | 
COCCn1c(-c2ccccc2OC(C)C)cc(=O)[nH]c1=S [Example 328, 6-(2-isopropoxyphenyl)-1-(2-methoxyethyl)-2-thioxo-2,3-dihydropyrimidin-4(1H)-one] | 4370 1/s per M | 
COCCn1c(-c2cccc(OC)c2OC)cc(=O)[nH]c1=S [Example 329, 6-(2,3-dimethoxyphenyl)-1-(2-methoxyethyl)-2-thioxo-2,3-dihydropyrimidin-4(1H)-one] | 963 1/s per M | 
COCCn1c(-c2cc(OC)cc(OC)c2)cc(=O)[nH]c1=S [Example 330, 6-(3,5-dimethoxyphenyl)-1-(2-methoxyethyl)-2-thioxo-2,3-dihydropyrimidin-4(1H)-one] | 5210 1/s per M | 
COCCn1c(-c2ccc(OC)c(OC)c2)cc(=O)[nH]c1=S [Example 331, 6-(3,4-dimethoxyphenyl)-1-(2-methoxyethyl)-2-thioxo-2,3-dihydropyrimidin-4(1H)-one] | 6330 1/s per M | 
COCCn1c(-c2ccc(OC)nc2OC)cc(=O)[nH]c1=S [Example 332, 6-(2,6-dimethoxypyridin-3-yl)-1-(2-methoxyethyl)-2-thioxo-2,3-dihydropyrimidin-4(1H)-one] | 3270 1/s per M | 
COCCn1c(-c2cc(Cl)ccc2OC)cc(=O)[nH]c1=S [Example 333, 6-(5-chloro-2-methoxyphenyl)-1-(2-methoxyethyl)-2-thioxo-2,3-dihydropyrimidin-4(1H)-one] | 6100 1/s per M | 
COCCn1c(-c2ccc(OC)cc2Cl)cc(=O)[nH]c1=S [Example 334, 6-(2-chloro-4-methoxyphenyl)-1-(2-methoxyethyl)-2-thioxo-2,3-dihydropyrimidin-4(1H)-one] | 6840 1/s per M | 
COCCn1c(-c2ccc(Cl)cc2OC)cc(=O)[nH]c1=S [Example 335, 6-(4-chloro-2-methoxyphenyl) 1-(2-methoxyethyl)-2-thioxo-2,3-dihydropyrimidin-4(1H)-one] | 9820 1/s per M | 
COCCn1c(-c2ccc(C(=O)N(C)C)cc2)cc(=O)[nH]c1=S [Example 336, 4-[3-(2-methoxyethyl)-6-oxo-2-thioxo-1,2,3,6-tetrahydropyrimidin-4-yl]-N,N-dimethylbenzamide] | 589 1/s per M | 
COCCn1c(-c2cc(C(C)C)ccc2OC)cc(=O)[nH]c1=S [Example 337, 6-(5-isopropyl-2-methoxyphenyl)-1-(2-methoxyethyl)-2-thioxo-2,3-dihydropyrimidin-4(1H)-one] | 13200 1/s per M | 
COCCn1c(-c2cnc(N(C)C)cc2OC)cc(=O)[nH]c1=S [Example 338, 6-[6-(dimethylamino)-4-methoxypyridin-3-yl]-1-(2-methoxyethyl)-2-thioxo-2,3-dihydropyrimidin-4(1H)-one] | 1280 1/s per M | 
COCCn1c(-c2c(OC)ccc3ccccc23)cc(=O)[nH]c1=S [Example 339, 1-(2-methoxyethyl)-6-(2-methoxy-1-naphthyl)-2-thioxo-2,3-dihydropyrimidin-4(1H)-one] | 10400 1/s per M | 
COCCn1c(-c2cccc(OC(F)(F)F)c2)cc(=O)[nH]c1=S [Example 340] | 1450 1/s per M | 
COCCn1c(-c2cc3c(cc2OC)CCCC3)cc(=O)[nH]c1=S [Example 341, 1-(2-methoxyethyl)-6-(3-methoxy-5,6,7,8-tetrahydronaphthalen-2-yl)-2-thioxo-2,3-dihydropyrimidin-4(1H)-one] | 14300 1/s per M | 
COCCn1c(-c2cc(OC)c(OC)c(OC)c2)cc(=O)[nH]c1=S [Example 342, 1-(2-methoxyethyl)-2-thioxo-6-(3,4,5-trimethoxyphenyl)-2,3-dihydropyrimidin-4(1H)-one] | 817 1/s per M | 
COCCn1c(-c2ccc(OC)c(OC)c2OC)cc(=O)[nH]c1=S [Example 343, 1-(2-methoxyethyl)-2-thioxo-6-(2,3,4-trimethoxyphenyl)-2,3-dihydropyrimidin-4(1H)-one] | 3570 1/s per M | 
COCCn1c(-c2cc(C(C)C)c(F)cc2OC)cc(=O)[nH]c1=S [Example 344, 6-(4-fluoro-5-isopropyl-2-methoxyphenyl)-1-(2-methoxyethyl)-2-thioxo-2,3-dihydropyrimidin-4(1H)-one] | 8480 1/s per M | 
COCCn1c(-c2ccc(OC)c3nc(C)ccc23)cc(=O)[nH]c1=S [Example 345, 1-(2-methoxyethyl)-6-(8-methoxy-2-methylquinolin-5-yl)-2-thioxo-2,3-dihydropyrimidin-4(1H)-one] | 946 1/s per M | 
COCCn1c(-c2cc(F)ccc2OC(F)(F)F)cc(=O)[nH]c1=S [Example 346] | 5890 1/s per M | 
COCCn1c(-c2ccc(S(=O)(=O)N(C)C)cc2)cc(=O)[nH]c1=S [Example 347, 4-[3-(2-methoxyethyl)-6-oxo-2-thioxo-1,2,3,6-tetrahydropyrimidin-4-yl]-N,N-dimethylbenzenesulfonamide] | 378 1/s per M | 
COCCn1c(-c2cccc(S(=O)(=O)N(C)C)c2)cc(=O)[nH]c1=S [Example 348, 3-[3-(2-methoxyethyl)-6-oxo-2-thioxo-1,2,3,6-tetrahydropyrimidin-4-yl]-N,N-dimethylbenzenesulfonamide] | 1400 1/s per M | 
NC(=O)Cn1c(-c2ccccc2OCCO)cc(=O)[nH]c1=S [Example 349, 2-(6-(2-(2-Hydroxyethoxy)phenyl)-4-oxo-2-thioxo-3,4-dihydropyrimidin-1(2H)-yl)acetamide] |  | 3630 1/s per M
COC(=O)/N=C(/N)NCCCn1c(-c2cc(Cl)ccc2OC)cc(=O)[nH]c1=S [Example 350, Methyl[amino({3-[6-(5-chloro-2-methoxyphenyl)-4-oxo-2-thioxo-3,4-dihydropyrimidin-1(2H)-yl]propyl}amino)methylidene]carbamate] |  | 8740 1/s per M
COc1ccc(F)cc1-c1cc(=O)[nH]c(=S)n1CCCNC(=N)N1CC(F)(F)C1 [Example 351, 3,3-Difluoro-N-{3-[6-(5-fluoro-2-methoxyphenyl)-4-oxo-2-thioxo-3,4-dihydropyrimidin-1(2H)-yl]propyl}azetidine-1-carboximidamide] |  | 7870 1/s per M
COc1ccc(OC)c(-c2cc(=O)[nH]c(=S)n2CCNC(=O)CN)c1 [Example 352, N-{2-[6-(2,5-dimethoxyphenyl)-4-oxo-2-thioxo-3,4-dihydropyrimidin-1(2H)-yl]ethyl}glycinamide] |  | 6720 1/s per M
